Measurements published in patent US6413971B1, “Fused bicyclic pyrimidine derivatives” (Pfizer Inc, priority 1996, dated 2002).
Counter-ions that a name gives are not always drawn.

C#Cc1cccc(Nc2ncnc3cnccc23)c1 (as salt: hydrochloride) [Example 24, (3-Ethynyl-phenyl)-pyrido[3,4-d]pyrimidin-4-yl-amine]
melting point: 233 to 235 °C

Cc1cc2c(N3CCc4c(Br)ccc(C)c43)ncnc2cn1.Cl
melting point: 232 to 244 °C

Cc1cc2c(N3CCc4cc(F)c(Br)cc43)ncnc2cn1.Cl
melting point: 262 to 264 °C

Cc1cc2c(N3CCc4ccc(Br)c(C)c43)ncnc2cn1.Cl
melting point: 212 to 229 °C

c1cc2c(Nc3ccc4sccc4c3)ncnc2cn1 (as salt: hydrochloride) [Example 25, Benzo[b]thiophen-5-yl-pyrido[3,4-d]pyrimidin-4-yl-amine]
melting point: 280 to 282 °C

C#Cc1cccc(Nc2ncnc3c2ccn3CCOCCOC)c1 [Example 13, (3-Ethynyl-phenyl)-{7-[2-(2-methoxy-ethoxy)-ethyl]-7H-pyrrolo[2,3-d]pyrimidin4-yl}amine]
melting point: 240 to 241 °C

Clc1ccc2c(c1)N(c1ncnc3cnccc13)CC2 [Example 5, 4-(6-Chloro-2,3dihydro-indol-1-yl)-pyrido[3,4-d]pyrimidine]
melting point: 194 to 196 °C

Cc1cc2c(N3CCc4ccc(Cl)cc43)ncnc2cn1 [Example 16, 4-(6Chloro-2,3-dihydro-indol-1-yl)-6methyl-pyrido[3,4-d]pyrimidine]
melting point: 232 to 234 °C

Oc1cc2ncnc(N3CCc4ccc(Cl)cc43)c2[nH]1 [Example 10, 4-(6Chloro-2,3dihydro-indol-1-yl)-5H-pyrrolo[3,2-d]pyrimidin-6-ol]
melting point: 250 °C (dec.)

C#Cc1cccc(Nc2ncnc3[nH]cc(-c4cccs4)c23)c1 [Example 27, (3-Ethynyl-phenyl)-(5-thiophen-2-yl-7H-pyrrolo[2,3-d]pyrimidin4-yl]-amine]
melting point: 230 to 232 °C
